± gives the standard deviation of the reports.
Point of comparison: `*CC(*)(C)C(=O)OCCCCC(F)(F)C(F)(F)C(F)(F)C(F)(F)F` (repeat unit), glass transition temperature 23.00 °C. Against it:
- *C(=O)Nc1ccc(C2(c3ccc(NC(=O)c4ccc5c(c4)C(=O)N(c4ccc(Oc6cccc(Oc7ccc(N8C(=O)c9ccc(*)cc9C8=O)cc7)c6)cc4)C5=O)cc3)c3ccccc3-c3ccccc32)cc1 (repeat unit) — higher, 278.00 °C
- *CC(*)c1ccc(-c2ccccc2)cc1 (repeat unit) [Poly(p-phenyl styrene) ] — higher, 138 ± 14 °C
- */C=C(\C#N)C(=O)NC1CCCCC1NC(=O)/C(C#N)=C/c1ccc(/C=C/c2ccc(N(CC)Cc3ccccc3CN(CC)c3ccc(/C=C/c4ccc(*)s4)cc3)cc2)s1 (repeat unit) — higher, 195.00 °C
- *Oc1ccc(/N=C(\c2ccccc2)c2ccc(Oc3ccc(-c4ccc(Oc5ccc(/C(=N/c6ccc(*)cc6)c6ccccc6)cc5)cc4)cc3)cc2)cc1 (repeat unit) — higher, 174.00 °C
- *Cc1cc(CNC(=O)c2cccc(C(=O)N*)c2)cc(C(C)(C)C)c1 (repeat unit) — higher, 188.00 °C
- *c1cc(-c2nc3ccccc3[nH]2)cc(-n2c(=O)c3cc4c(=O)n(*)c(=O)c4cc3c2=O)c1 (repeat unit) — higher, 180.00 °C
- *CC(*)(C)C(=O)OCCCC (repeat unit) [poly(butyl methacrylate)] — within error, 22.42 ± 6.3 °C
- *CCCCCCCCNC(=O)c1ccc(C(=O)N*)c(Oc2ccccc2)c1 (repeat unit) — higher, 96.00 °C
- *CC1(C)CC(N2C(=O)c3ccc(-c4ccc5c(c4)C(=O)N(*)C5=O)cc3C2=O)CC(C)(C)C1 (repeat unit) — higher, 311.00 °C
- *C(=O)c1ccc2c(c1)C(=O)N(c1c(C)cc(-c3cc(C)c(N4C(=O)c5ccc(*)cc5C4=O)c(C)c3)cc1C)C2=O (repeat unit) — higher, 310.00 °C
- *Oc1ccc(Oc2ccc(/C(=N/c3ccc(/N=C(\c4ccccc4)c4ccc(*)cc4)cc3)c3ccccc3)cc2)cc1 (repeat unit) — higher, 176.00 °C
- *c1ccc(/C=C/c2ccc(-n3c(=O)c4cc5c(=O)n(*)c(=O)c5cc4c3=O)cc2S(=O)(=O)[O][Na])c(S(=O)(=O)[O][Na])c1 (repeat unit) — higher, 228.00 °C
- *CC(*)C(=O)OCc1c(Br)c(Br)c(Br)c(Br)c1Br (repeat unit) — higher, 181.00 °C
- *CC(*)C(F)(F)C(F)(F)C(F)(F)F (repeat unit) [Poly[(heptafluoropropyl)ethylene] ] — higher, 58 ± 0.6 °C
- *Oc1c(C)cc(*)cc1C(C)CCCCC (repeat unit) — higher, 60.00 °C
- *Oc1cccc(C(=O)c2ccc(*)cc2)c1 (repeat unit) — higher, 137.00 °C
- *Oc1ccc(CC(NC(=O)CCc2ccc(OC(=O)CCCCCCC(*)=O)cc2)C(=O)OCCCC)cc1 (repeat unit) — higher, 37.00 °C
- *c1ccc(OC(=O)c2cccc(C(=O)Oc3ccc(C4(*)OC(=O)c5ccccc54)cc3C)c2)c(C)c1 (repeat unit) — higher, 273.00 °C
- *c1ccc(Oc2ccc(Oc3ccc(N4C(=O)c5ccc(Oc6ccc(C7(c8ccc(Oc9ccc%10c(c9)C(=O)N(*)C%10=O)cc8)CCC(c8ccccc8)CC7)cc6)cc5C4=O)cc3)c(C(C)(C)C)c2)cc1 (repeat unit) — higher, 236.00 °C
- *CC(C)(C)CS(=O)(=O)CC(C)(C)COC(=O)O* (repeat unit) — higher, 50.00 °C
- *Oc1ccc(C(C)(C)c2ccc(Oc3ccc4c(c3)C(=O)N(N3C(=O)c5ccc(*)cc5C3=O)C4=O)cc2)cc1 (repeat unit) — higher, 216.70 °C
- *Cc1cccc(CNC(=O)/C=C(\C)C(=O)N*)c1 (repeat unit) — higher, 135.00 °C
- *CC(*)(C)C(=O)OCCCCn1c2ccccc2c2ccccc21 (repeat unit) — higher, 59.20 °C
- *c1ccc(Oc2ccccc2Oc2ccc(-n3c(=O)c4cc5c(=O)n(*)c(=O)c5cc4c3=O)cc2C(F)(F)F)c(C(F)(F)F)c1 (repeat unit) — higher, 277.00 °C
- *c1ccc(Oc2ccc(-n3c(=O)c4cc5c(=O)n(*)c(=O)c5cc4c3=O)cc2)cc1 (repeat unit) — higher, 385.00 ± 20 °C
- *Oc1ccc(S(=O)(=O)c2ccc(Oc3ccc(C(c4ccc(*)c([Si](C)(C)C)c4)(C(F)(F)F)C(F)(F)F)cc3[Si](C)(C)C)cc2[Si](C)(C)C)c([Si](C)(C)C)c1 (repeat unit) — higher, 148.90 °C
- *O[Si](*)(C)CCCCCCCCCCC(=O)Oc1ccc(OC(=O)c2ccc(OCC(C)CC)cc2)cc1 (repeat unit) — lower, 13.40 °C
- *CC(*)OC(=O)c1cccc(C)c1 (repeat unit) — higher, 49.00 °C
- *Oc1ccc(-c2ccc(OC(=O)c3ccc(C(*)=O)cc3Sc3ccc4ccccc4c3)cc2)cc1 (repeat unit) — higher, 141.00 °C
- *Oc1cccc(Oc2ccc(C(=O)c3ccc(NC(=O)CCCCCCCCC(=O)Nc4ccc(C(=O)c5ccc(*)cc5)cc4)cc3)cc2)c1 (repeat unit) — higher, 143.00 °C
- *c1ccc(Oc2cccc(Oc3ccc(N4C(=O)c5cccc(Oc6ccc(Oc7cccc8c7C(=O)N(*)C8=O)cc6)c5C4=O)cc3)c2)cc1 (repeat unit) — higher, 214.00 °C
- *OC1C(CO)OC(*)C(N)C1O (repeat unit) — higher, 194.00 °C
- *=NP(=NP(=NC(=*)Oc1ccc(OC)cc1)(Oc1ccc(OC)cc1)Oc1ccc(OC)cc1)(Oc1ccc(OC)cc1)Oc1ccc(OC)cc1 (repeat unit) — higher, 37.00 °C
- *c1cccc(P(=O)(c2ccc(C(F)(F)F)cc2)c2cccc(-n3c(=O)c4c(-c5ccc(C(F)(F)F)cc5)c5c(=O)n(*)c(=O)c5c(-c5ccc(C(F)(F)F)cc5)c4c3=O)c2)c1 (repeat unit) — higher, 324.00 °C
- *Oc1cc(C(C)(C)c2ccccc2)c(OC(=O)c2cccc(C(*)=O)c2)cc1C(C)(C)c1ccccc1 (repeat unit) — higher, 180.00 °C
- *c1ccc(-c2cc3c(ccc4ccccc43)cc2-c2ccc(N(*)c3ccc(C)cc3)cc2)cc1 (repeat unit) — higher, 126.00 °C
- *CC(C)S* (repeat unit) [Poly(propylene sulfide) ] — lower, -47 ± 2.7 °C
- *c1cc(C)c(/N=C/c2ccc(OCc3ccc(COc4ccc(/C=N/c5cc(C)c(N6C(=O)c7ccc8c9ccc%10c%11c(ccc(c%12ccc(c7c8%12)C6=O)c%119)C(=O)N(*)C%10=O)cc5C)cc4OC)cc3)c(OC)c2)cc1C (repeat unit) — higher, 145.00 °C
- *CCCCCCCCCCCCNC(=O)CCc1ccc(CCC(=O)N*)cc1 (repeat unit) — higher, 85.00 °C
- *CCCCCCCCNC(=O)CCP(C)(=O)CCC(=O)N* (repeat unit) — higher, 52.00 °C
- *CCCOCCCCOCCCN1C(=O)c2ccc(C(=O)Oc3ccc(OC(=O)c4ccc5c(c4)C(=O)N(*)C5=O)cc3)cc2C1=O (repeat unit) — higher, 56.00 °C
- *Oc1ccc(S(=O)(=O)c2ccc3ccc(S(=O)(=O)c4ccc(*)cc4)cc3c2)cc1 (repeat unit) — higher, 250.00 °C
- *CC(C)(C)COC(=O)NC(=O)c1cc(C(=O)NC(=O)O*)cc(C(C)(C)C)c1 (repeat unit) — higher, 144.00 °C
- *CCCCCCCC(*)C (repeat unit) — lower, -58.00 °C
- *Oc1c(-c2ccccc2)cc(*)cc1-c1ccccc1-c1ccccc1 (repeat unit) — higher, 211.00 °C
- *C(=O)c1ccc2c(c1)C(=O)N(c1ccc(Oc3c(C)cc(Cc4cc(C)c(Oc5ccc(N6C(=O)c7ccc(*)cc7C6=O)cc5)c(C)c4)cc3C)cc1)C2=O (repeat unit) — higher, 303.00 °C
- *O[Si](*)(C)CCCCC(=O)OCCCCCCCCCCC(F)(F)C(F)(F)C(F)(F)C(F)(F)C(F)(F)C(F)(F)C(F)(F)C(F)(F)F (repeat unit) — lower, -78.00 °C
- *Nc1cccc2c(NC(=O)c3cc(NC(=O)C(CCSC)N4C(=O)c5ccccc5C4=O)cc(C(*)=O)c3)cccc12 (repeat unit) — higher, 198.00 °C
- *CCN(CCOC(=O)Nc1ccc(C)c(NC(=O)O*)c1)c1ccc(/N=N/c2ccc(-c3nc4cc([N+](=O)[O-])ccc4[nH]3)cc2)cc1 (repeat unit) — higher, 188.00 °C
- *c1ccc(Oc2cccc(-n3c(=O)c4cc5c(=O)n(*)c(=O)c5cc4c3=O)c2)cc1 (repeat unit) — higher, 397.00 °C
- *CCCCCCOC(=O)Nc1ccc(C)c(NC(=O)O*)c1 (repeat unit) — higher, 32.00 °C
- *CCc1ccc(CCNC(=O)CCCCCCCCCCCCCCCCC(=O)N*)cc1 (repeat unit) — higher, 75.00 °C
- *CCCCCCCCCCOc1ccc(/C=C/c2ccc(OCCCCCCCCCCOP(=O)(O*)OCCCCCCCCCCOc3ccc(/N=N/c4ccc(OC)cc4)cc3)cc2)cc1 (repeat unit) — higher, 58.00 °C
- */C=C/C1CC(*)C2C3CCC(C3)C12 (repeat unit) — higher, 207.40 °C
- *CCN(CCOC(=O)Nc1ccc(C)c(NC(=O)O*)c1)c1ccc(/N=N/c2ccc(-c3nc4ccccc4o3)cc2)cc1 (repeat unit) — higher, 152.00 °C
- *c1cc(CCCCCCO[Si](C)(C)C)c(*)s1 (repeat unit) — lower, 10.00 °C
- *C[Si](*)(C)c1ccccc1 (repeat unit) — higher, 28.00 °C
- *CC(O)COC(=O)CCCCCCCCC(=O)OCC(O)COc1ccc(C(=O)Oc2ccc(O*)cc2)cc1 (repeat unit) — higher, 36.00 °C
- *c1ccc(-c2ccc(-c3ccc([Si](C)(C)[Si](*)(C)C)s3)s2)s1 (repeat unit) — higher, 45.00 °C
- *CC(*)(C)C(=O)OCCOCCOCCOc1ccc(/N=N/c2ccc(C#N)cc2)cc1 (repeat unit) — higher, 37.00 °C
- *CCCCCCCCOC(=O)NCCCCCCNC(=O)O* (repeat unit) — higher, 58.00 °C
- *O[Si](*)(CCCOCCOCCOC)CCCOCCOCCOC (repeat unit) — lower, -63.40 °C
- *CC(*)(C)OC (repeat unit) — higher, 67.00 °C
- *C(=O)c1ccc2c(c1)C(=O)N(c1ccc(Cc3ccc(C(=O)c4cccc(N5C(=O)c6ccc(*)cc6C5=O)c4)cc3)cc1)C2=O (repeat unit) — higher, 290.00 °C
- *Nc1ccc(*)cc1C (repeat unit) — lower, -71.40 °C
